Assay results as given in the supplement of paper PMC10627819.

What was measured:
[1] = system: B. subtilis 168; assay: fitness (endpoint OD595 vs no drug) (fraction); higher = more growth
Summary of the method: (§1)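 Fitness is computed from the optical density at which cultures reach stationary phase, divided by the robust mean of no-drug control wells. Any value above 1 is set to 1. Cultures started at OD595 0.01 in 384-well plates with TSB, LB Lennox or CY at 37 °C, and OD595 was read every 30 min for 14 h against a first-reading background.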

[2] = system: S. aureus DSM 20231; assay: as above
Summary of the method: as §1

[3] = system: B. subtilis 168; assay: Bliss interaction score (quartile over a dose matrix) (fitness difference); higher = more antagonism (negative = synergy)
Summary of the method: (§2)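 Growth was read as OD595 when cultures entered stationary phase, and each value was divided by the plate's robust no-drug mean and capped at 1. This normalised ratio is the fitness value, and fitness for each single drug came from the combination data. The Bliss score subtracts the expected fitness, taken as the product, from the observed fitness and is given as quartiles across technical, biological and donor/recipient replicates.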

[4] = system: S. aureus Newman; assay: as above
Summary of the method: as §2

[5] = system: S. pneumoniae D39V; assay: as above
Summary of the method: as §2

[6] = system: S. aureus DSM 20231; assay: as above
Summary of the method: as §2

[7] = system: S. aureus Newman; assay: fitness (endpoint OD595 vs no drug) (fraction); higher = more growth
Summary of the method: as §1
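Wherever Bliss interaction score (quartile over a dose matrix) is given: first quartile when negative (synergy) and third quartile when positive (antagonism).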
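Wherever fitness (endpoint OD595 vs no drug) is given: OD595 on entry to stationary phase over no-drug wells; at most 1.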

Cn1c2cccc(=O)c-2nc2ccccc21 [Pyocyanin] + COc1cc(Cc2cnc(N)nc2N)cc(OC)c1OC [Trimethoprim]
fitness, one replicate
Conditions | partner 0.1 µg/mL | partner 0.125 µg/mL | partner 0.2 µg/mL | partner 0.4 µg/mL | partner 1 µg/mL | partner 2 µg/mL
[1], first compound 1.25 µg/mL | 0.744 | 0.7 | 0.672 | 0.502 | 0.354 | 0.3
[1], first compound 2.5 µg/mL | 0.758 | 0.598 | 0.669 | 0.414 | 0.297 | 0.273
[1], first compound 5 µg/mL | 0.501 | 0.563 | 0.429 | 0.242 | 0.191 | 0.211
[2], first compound 1.25 µg/mL | – | 0.659 | – | – | – | –
[2], first compound 2.5 µg/mL | – | 0.738 | – | – | – | –
[2], first compound 5 µg/mL | – | 0.577 | – | – | – | –

fitness
Conditions | first compound 1.25 µg/mL | first compound 2.5 µg/mL | first compound 5 µg/mL
[1], partner 0.25 µg/mL | 0.653 | 0.594 | –
[1], partner 0.5 µg/mL | 0.521 | 0.439 | 0.35
[2], partner 0.25 µg/mL | 0.553 | 0.555 | 0.5
[2], partner 0.5 µg/mL | 0.316 | 0.497 | 0.442
[2], partner 1 µg/mL | 0.0451 | 0.053 | 0.0904

Conditions | Bliss interaction score
[3] | 0.0421
[4] | 0.123
[5] | 0.117
[6] | 0.163

CC[C@H]1OC(=O)[C@H](C)[C@@H](O[C@H]2C[C@@](C)(OC)[C@@H](O)[C@H](C)O2)[C@H](C)[C@@H](O[C@@H]2O[C@H](C)C[C@H](N(C)C)[C@H]2O)[C@](C)(O)C[C@@H](C)CN(C)[C@H](C)[C@@H](O)[C@]1(C)O [Azithromycin] + CO/N=C(\C(=O)N[C@@H]1C(=O)N2C(C(=O)[O-])=C(C[N+]3(C)CCCC3)CS[C@H]12)c1csc(N)n1 [Cefepime]
fitness
Conditions | first compound 0.125 µg/mL | first compound 0.25 µg/mL | first compound 0.5 µg/mL
[2], partner 0.125 µg/mL | 0.842 | 0.858 | –
[2], partner 0.25 µg/mL | 0.818 | 0.838 | –
[2], partner 0.5 µg/mL | 0.833 | 0.843 | 0.565
[7], partner 0.125 µg/mL | 0.872 | 0.927 | 0.752
[7], partner 0.25 µg/mL | 0.799 | 0.872 | 0.669
[7], partner 0.5 µg/mL | 0.794 | 0.809 | 0.551

Conditions | Bliss interaction score
[3] | 0.0866
[4] | 0.0874
[5] | 0.112
[6] | 0.103
